Test results published in US20220348590A1, “CYCLOOXYGENASE-2 INHIBITORS AND USES THEREOF” (The Board Institute, Inc., priority 2019, published 2022).
Where two headings read alike, the source gives them in different places.

Legend:
ovine COX-1 (oCOX-1) = target: T1, ovine COX-1 (oCOX-1) (Ovis aries, UniProt P05979); assay: LCMS-based COX-1 enzymatic inhibition assay (PGE2 quantification); assay type: biochemical
T1 construct: purchased Cayman Chemicals (Ann Arbor, Mich.)
T1 sequence (P05979 25-600): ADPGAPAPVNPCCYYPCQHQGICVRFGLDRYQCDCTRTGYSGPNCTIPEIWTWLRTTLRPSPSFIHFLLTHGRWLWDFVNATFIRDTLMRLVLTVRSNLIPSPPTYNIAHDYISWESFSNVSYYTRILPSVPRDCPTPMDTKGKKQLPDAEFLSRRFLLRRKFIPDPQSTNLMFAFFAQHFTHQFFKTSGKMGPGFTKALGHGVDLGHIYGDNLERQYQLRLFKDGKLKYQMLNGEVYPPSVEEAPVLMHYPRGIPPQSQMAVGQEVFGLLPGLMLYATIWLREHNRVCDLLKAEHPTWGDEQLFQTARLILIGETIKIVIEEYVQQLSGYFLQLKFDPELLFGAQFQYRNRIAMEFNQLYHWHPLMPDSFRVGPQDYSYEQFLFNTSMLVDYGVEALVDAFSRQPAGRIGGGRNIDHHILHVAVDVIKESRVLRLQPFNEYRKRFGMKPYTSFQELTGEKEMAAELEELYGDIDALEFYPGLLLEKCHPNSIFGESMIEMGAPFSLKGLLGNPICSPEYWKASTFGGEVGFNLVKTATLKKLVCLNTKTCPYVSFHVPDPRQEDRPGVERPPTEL
Description: We have adapted a previously reported cyclooxygenase enzymatic assay utilizing LCMS quantification of PGE2 as the product of COX-1 and COX2 catalyzed conversion of arachidonic acid to evaluate the binding properties of newly synthesized ligands [Cao, 2011]. These optimized and miniaturized (384-well plates) LCMS-based COX-1 and COX2 enzymatic assays enabled us to quickly evaluate newly synthesized ligands for COX2 binding affinity and selectivity vs COX-1. Using a shorter ligand-enzyme incubation time in the LCMS assay (2 minutes vs 10 minutes) also permitted us to prioritize ligands with faster binding kinetics. Considering the relatively slow on-rate kinetics of known coxibs, due to their 3-step binding mechanism [Marnett, 2009], we believe that optimizing this critical parameter will be key to the successful development of a COX2 PET tracer. Using these enzymatic assays, we have evaluated>200 newly synthesized ligands against COX2 and >20 ligands against COX-1. Another critical property necessary for a good PET radiotracer is to have low non-specific binding (NSB) to increase the free fraction and maximize the signal to noise ratio. This property can be evaluated using in-vitro protein binding assays, and we have now evaluated>50 newly synthesized ligands in mouse, rat and human plasma protein binding (PPB) assays as well as >15 ligands in a mouse brain protein binding (BPB) assay.
Ovine COX-1 (oCOX-1), ovine COX2 (oCOX2), human recombinant COX2 (hCOX2), arachidonic acid, PGE2, d4-PGD2, and […] (labeled with deuterium atoms at positions 3 and 4) were purchased from Cayman Chemicals (Ann Arbor, Mich.). The cofactors (−)epinephrine and hematin, and the COX inhibitors indomethacin, resveratrol and diclofenac were purchased from Sigma-Aldrich (St. Louis, Mo.). Celecoxib was purchased from 3B PharmaChem International (Wuhan, China). All organic solvents were HPLC grade or better and were purchased from Thermo Fisher (Hanover Park, Ill.). Formic acid was purchased from EMD Chemicals (San Diego, Calif.). Purified water was prepared by using a Millipore Milli-Q purification system (Millipore, Billerica, Mass.). All other chemicals and solvents were ACS reagent grade, unless stated otherwise.
In an Eppendorf tube, 146 μL of 100 mM Tris.HCl (pH 8.0) buffer, 2 μL of 100 μM hematin (co-factor) and 10 μL of 40 mM L-epinephrine (co-factor) were mixed at room temperature. Next, 20 μL of Tris.HCl (pH 8.0) buffer containing 0.2 μg COX2 or 0.1 μg COX-1 (approximately 1 unit of enzyme; 1 unit COX utilizes 1 nmol 02/mg/min at 37° C.) was added, and the solution was incubated at room temperature for 2 min. A 2 μL aliquot of the COX inhibitor in DMSO was added to the enzyme solution and preincubated at 37° C. for 10 min. Negative controls were identical except that 2 μL aliquots of DMSO without inhibitor were used instead.
Each COX reaction was initiated by adding 20 μL of arachidonic acid in Tris.HCl (pH 8.0) buffer to give a final concentration of 5 μM; and the reaction was terminated after 2 min by adding 20 μL of 2.0 M HCl. The surrogate standards d4-PGE2 and d4-PGD2 (10 μL aliquot of 50 ng/mL solution in methanol) were added to correct for errors or degradation during sample handling and for variation in injection volume or instrument response during LC-MS-MS. After 30 min, PGE2, PGD2 and their surrogate standards were extracted from each incubation mixture using 800 μL hexane/ethyl acetate (50:50, v/v). The organic phase was removed, evaporated to dryness, and reconstituted in 100 μL methanol/water (50:50, v/v) for analysis using LC-MS-MS.
The concentration of PGE2 in each sample was measured using LC-MS-MS, and the percent of COX inhibition by each test solution was determined by comparing the amount of PGE2 produced in the experiment with that produced in the negative control incubation. The formation of PGD2 was measured for quality control purposes, since the levels of PGD2 should be proportional to those of PGE2. […]

[1] = target: T2, human recombinant COX2 (hCOX2) (UniProt P35354); assay: LCMS-based COX2 enzymatic inhibition assay (PGE2 quantification); assay type: biochemical; design: COX2 2 minutes pge2/pge2d4 area ratio Avg; other: 2 minutes; readout pge2/pge2d4 area ratio; average; COX2 2 minutes pge2/pge2d4 area ratio Avg; LLE; average LLE; COX2 2 minutes pge2 area (counts) Avg; readout pge2 area (counts); other: 2 min; "ovine COX2 (oCOX2), human recombinant COX2 (hCOX2)"; conditions: for IC50: average
T2 sequence (P35354 1-604): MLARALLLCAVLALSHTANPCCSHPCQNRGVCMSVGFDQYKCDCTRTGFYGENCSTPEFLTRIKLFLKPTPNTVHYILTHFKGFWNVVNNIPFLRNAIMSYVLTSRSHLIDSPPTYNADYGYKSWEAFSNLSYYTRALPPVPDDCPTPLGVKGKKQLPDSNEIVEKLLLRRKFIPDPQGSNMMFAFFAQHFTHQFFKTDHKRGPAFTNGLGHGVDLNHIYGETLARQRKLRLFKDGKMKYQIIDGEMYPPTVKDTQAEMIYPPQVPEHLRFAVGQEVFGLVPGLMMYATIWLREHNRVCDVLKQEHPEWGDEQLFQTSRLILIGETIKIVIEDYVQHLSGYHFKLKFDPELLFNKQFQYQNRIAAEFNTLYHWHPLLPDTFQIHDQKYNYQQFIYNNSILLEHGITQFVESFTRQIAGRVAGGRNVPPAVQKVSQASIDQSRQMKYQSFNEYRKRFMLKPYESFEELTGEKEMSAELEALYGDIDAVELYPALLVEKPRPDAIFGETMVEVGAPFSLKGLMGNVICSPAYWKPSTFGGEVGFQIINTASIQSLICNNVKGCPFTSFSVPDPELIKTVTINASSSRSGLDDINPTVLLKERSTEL
In short: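 Ovine COX-1 (0.1 μg) or human recombinant COX2 (0.2 μg) in 100 mM Tris.HCl pH 8.0 with hematin and epinephrine, preincubated with inhibitor 10 min at 37 °C. Reaction with 5 μM arachidonic acid stopped after 2 min with HCl; PGE2 quantified by LC-MS-MS. IC50 from 12 concentrations in triplicate.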

[2] = 10 minutes, readout pge2/pge2d4 area ratio, average, read-out: COX1 10 minutes pge2/pge2d4 area ratio Avg. IC50
[3] = 10 minutes, readout pge2 area (counts), average LLE
[4] = 2 minutes, readout pge2/pge2d4 area ratio, average LLE
[5] = 2 minutes, readout pge2/pge2d4 area ratio, read-out: COX2 2 minutes pge2/pge2d4 area ratio Avg. IC50
[6] = 2 minutes, readout pge2 area (counts), average LLE
[7] = 2 minutes, readout pge2 area (counts), read-out: COX2 2 minutes pge2 area (counts) Avg. IC50
[8] = 10 minutes, pge2 area (counts), head of this section not shown, inferred
[9] = 10 minutes, pge2 area (counts), head of this section not shown, inferred, read-out: COX1 10 minutes pge2 area (counts) Avg. IC50
[10] = 10 minutes, pge2/pge2d4 area ratio, head of this section not shown, inferred

SMILES | COX1 10 minutes pge2/pge2d4 area ratio Avg. LLE (ovine COX-1 (oCOX-1); 10 minutes, readout pge2/pge2d4 area ratio, average LLE) | IC50 (ovine COX-1 (oCOX-1); [2]) | COX1 10 minutes pge2 area (counts) Avg. LLE (ovine COX-1 (oCOX-1); [3]) | COX2 2 minutes pge2/pge2d4 area ratio Avg. LLE [1, 4] | IC50 [1, 5] | COX2 2 minutes pge2 area (counts) Avg. LLE [1, 6] | IC50 [1, 7] | COX1 10 minutes pge2 area (counts) Avg. LLE (ovine COX-1 (oCOX-1); [8]) | COX2 10 minutes pge2 area (counts) Avg. LLE [1, 3] | IC50 ([1]; 10 minutes, readout pge2 area (counts), read-out: COX2 10 minutes pge2 area (counts) Avg. IC50) | IC50 (ovine COX-1 (oCOX-1); [9]) | COX1 10 minutes pge2/pge2d4 area ratio Avg. LLE (ovine COX-1 (oCOX-1); [10]) | IC50 (ovine COX-1 (oCOX-1)) | IC50 (ovine COX-1 (oCOX-1); 10 minutes, readout pge2 area (counts), average, read-out: COX1 10 minutes pge2 area (counts) Avg. IC50)
CN(Cc1ccoc1)c1cccc(-c2ccc(S(C)(=O)=O)cc2)n1 [Compound 52] | 1.0149 | 51900 nM | 1.014 | 4.377 | 23.9 nM | 4.612 | 13.3 nM |  |  |  |  |  |  | 
CS(=O)(=O)c1ccc(-c2cncc(NCc3ccccc3)n2)cc1 [Compound 93] |  |  |  | 5.017 | 69 nM | 5.139 | 55.8 nM | 2.104 | 5.9924 | 6.85 nM |  |  |  | 
Cn1cccc1CNc1cccc(-c2ccc(S(C)(=O)=O)cc2)n1 [Compound 77] |  |  |  | 4.259 | 48.6 nM | 4.246 | 53.8 nM | 1.289 |  |  | 40900 nM |  |  | 
COc1ncc(-c2ccc(S(N)(=O)=O)cc2)nc1NCc1cccs1 [Compound 64] |  | 5360 nM |  | 5.595 | 36.1 nM | 5.591 | 36.6 nM | 3.473 |  |  | 4760 nM | 3.4205 |  | 
COc1ccc(NCc2ccoc2)nc1-c1ccc(S(C)(=O)=O)cc1 [Compound 66] |  |  |  | 4.554 | 37.3 nM | 4.505 | 42 nM | 1.364 |  |  |  | 1.364 | 52000 nM | 
CS(=O)(=O)c1ccc(-n2ccc3cnc(NCc4cccs4)nc32)cc1 [Compound 80] |  | 37800 nM |  | 3.33 | 52 nM | 3.382 | 45.5 nM |  |  |  |  | 0.4422 |  | 
COc1ncc(NCc2cccs2)nc1-c1ccc(S(C)(=O)=O)nc1 [Compound 60] |  |  |  | 5.902 | 32.3 nM | 5.891 | 33.4 nM | 2.694 |  |  |  | 2.694 | 52000 nM | 
CS(=O)(=O)c1ccc(-c2cncc(SCc3ccco3)n2)cc1 [Compound 78] |  | 33500 nM |  |  | 49.4 nM |  | 43.6 nM |  |  |  |  |  |  | 
CS(=O)(=O)c1ccc(-c2cccc(NCc3ccsc3)n2)cc1 [Compound 11] |  |  | 0.8485 | 4.584 | 8.42 nM | 4.6244 | 8.13 nM |  |  |  |  |  |  | 42800 nM
Cc1coc(CNc2cccc(-c3ccc(S(C)(=O)=O)cc3)n2)c1 [Compound 85] |  |  |  | 4.23 | 58.1 nM | 3.951 | 115 nM | 1.134 |  |  |  | 1.134 | 52000 nM | 
CS(=O)(=O)c1ccc(-c2ncc3ccn(Cc4cccs4)c3n2)cc1 [Compound 71] |  | 49300 nM |  | 3.165 | 41.2 nM | 3.167 | 41.6 nM |  |  |  |  | 0.04679 |  | 
CS(=O)(=O)c1ccc(-c2cccc(NCc3ccc[nH]3)n2)cc1 [Compound 73] |  | 15000 nM |  | 4.8 | 42.9 nM | 4.74 | 45.2 nM | 2.127 |  |  | 17100 nM | 2.183 |  | 
CS(=O)(=O)c1ccc(-c2cncc(OCc3ccoc3)n2)cc1 [Compound 58] |  | 34400 nM |  | 5.691 | 31 nM | 5.691 | 30.9 nM | 2.324 |  |  |  | 2.5036 |  | 
